In patent US10093671B2, “2-oxo-6,7-dihydrobenzo[a]quinolizine-3-carboxylic acid derivatives for the treatment and prophylaxis of hepatitis B virus infection” (Hoffmann-La Roche Inc., priority 2015, dated 2018) one finds IC50 data, which are given here for 24 molecules.

Structures can show the parent of a compound that is named as a salt.

The assay has as its system HBsAg. Nature of the assay: microbe, parasite or virus in culture. To be noted: Hepatitis B virus, HepG2.2.15, read-out: IC50 (HBsAg secretion reduced by 50% compared to the no drug control).
Procedure: HepG2.2.15 cells (Acs et al. Proc Natl Acad Sci USA, 84, (1987), 4641-4), a constitutively HBV-expressing cell line were cultured in DMEM+Glutamax-I medium (Invitrogen, Carlsbad, Calif., USA), supplemented with 10% fetal bovine serum (Invitrogen) and G418 (Invitrogen) at a final concentration of 200 mg/L and maintained in 5% CO2 at 37° C.
HepG2.2.15 cells were seeded in duplicate into white, 96-well plates at 1.5×10^4 cells/well. The cells were treated with a three-fold serial dilution series of the compounds in DMSO. The final DMSO concentration in all wells was 1% and DMSO was used as no drug control.
The HBsAg chemiluminescence immunoassay (CLIA) kit (Autobio Diagnostics Co., Zhengzhou, China, Catalog number: CL0310-2) was used to measure the levels of secreted HBV antigens semi-quantitatively. For the detection 50 μL/well culture supernatant was used and HBsAg was quantified using HBsAg chemiluminescence immunoassay (CLIA) kit (Autobio Diagnostics Co., Zhengzhou, China, Catalog number: CL0310-2), 50 μL of the supernatant was transferred to the CLIA assay plate and 50 μL of enzyme conjugate reagent was added into each well. The plates were sealed and gently agitated for 1 hour at room temperature. The supernatant-enzyme-mixture was discarded and wells were washed 6 times with 300 μL of PBS. The residual liquid was removed by plating the CLIA plate right side down on absorbent tissue paper. 25 μL of substrates A and B were added to each well. Luminance was measured using a luminometer (Mithras LB 940 Multimode Microplate Reader) after 10 minutes incubation. Dose-response curves were generated and the IC50 value was extrapolated by using the E-WorkBook Suite (ID Business Solutions Ltd., Guildford, UK). The IC50 was defined as the compound concentration (or conditioned media log dilution) at which HBsAg secretion was reduced by 50% compared to the no drug control.
On to `COc1cc2c(cc1OCCCO)CC(c1cccs1)n1cc(C(=O)O)c(=O)cc1-2` (stereo not drawn) [Example 17, 9-(3-hydroxypropoxy)-10-methoxy-2-oxo-6-(2-thienyl)-6,7-dihydrobenzo[a]quinolizine-3-carboxylic Acid], for which the IC50 turned out to be 18 nM.
On to `COc1cc2c(cc1OCCCS(C)(=O)=O)CC(c1cccs1)n1cc(C(=O)O)c(=O)cc1-2` (stereo not drawn) [Example 32, 10-methoxy-9-(3-methylsulfonylpropoxy)-2-oxo-6-(2-thienyl)-6,7-dihydrobenzo[a]quinolizine-3-carboxylic Acid], for which the half-inhibitory concentration (IC50) was 110 nM.
For `COCCCOc1cc2c(cc1OC)-c1cc(=O)c(C(=O)O)cn1C(c1ccc(OC)cc1)C2` (stereo not drawn) [Example 5, 10-methoxy-6-(4-methoxyphenyl)-9-(3-methoxypropoxy)-2-oxo-6,7-dihydrobenzo[a]quinolizine-3-carboxylic Acid] the value was 800 nM.
In the case of `COc1cc2c(cc1OCCCC(=O)O)CC(c1cccs1)n1cc(C(=O)O)c(=O)cc1-2` (stereo not drawn) [Example 30, 9-(3-carboxypropoxy)-10-methoxy-2-oxo-6-(2-thienyl)-6,7-dihydrobenzo[a]quinolizine-3-carboxylic Acid], the IC50 is 320 nM.
Next, `COc1cc2c(cc1OC)-c1cc(=O)c(C(=O)O)cn1C(c1cccs1)C2` (stereo not drawn) [Example 13, 9,10-dimethoxy-2-oxo-6-(2-thienyl)-6,7-dihydrobenzo[a]quinolizine-3-carboxylic Acid]: 6 nM; `COc1cc2c(cc1OCCCCCCNC(=O)OC(C)(C)C)CC(c1cccs1)n1cc(C(=O)O)c(=O)cc1-2` (stereo not drawn) [Example 21, 9-[6-(tert-butoxycarbonylamino)hexoxy]-10-methoxy-2-oxo-6-(2-thienyl)-6,7-dihydrobenzo[a]quinolizine-3-carboxylic Acid]: 6 nM.
As to `COCCCOc1cc2c(cc1OC)-c1cc(=O)c(C(=O)O)cn1C(c1ccc(F)cc1)C2` (stereo not drawn) [Example 9, 6-(4-fluorophenyl)-10-methoxy-9-(3-methoxypropoxy)-2-oxo-6,7-dihydrobenzo[a]quinolizine-3-carboxylic Acid], the IC50 turned out to be 83 nM.
Regarding `COc1cc2c(cc1OCCCC#N)CC(c1cccs1)n1cc(C(=O)O)c(=O)cc1-2` (stereo not drawn) [Example 19, 9-(3-cyanopropoxy)-10-methoxy-2-oxo-6-(2-thienyl)-6,7-dihydrobenzo[a]quinolizine-3-carboxylic Acid], the concentration for half-maximal inhibition (IC50) worked out at 5 nM.
For `COCCCOc1cc2c(cc1Cl)-c1cc(=O)c(C(=O)O)cn1C(c1cc3ccccc3s1)C2` (stereo not drawn) [Example 37, 6-(benzothiophen-2-yl)-10-chloro-9-(3-methoxypropoxy)-2-oxo-6,7-dihydrobenzo[a]quinolizine-3-carboxylic Acid] the value was 4420 nM.
For `COc1cc2c(cc1OCC(C)C)CC(c1cccs1)n1cc(C(=O)O)c(=O)cc1-2` (stereo not drawn) [Example 14, 9-isobutoxy-10-methoxy-2-oxo-6-(2-thienyl)-6,7-dihydrobenzo[a]quinolizine-3-carboxylic Acid] the value was 2 nM.
Next, `COc1cc2c(cc1OCCCn1cccn1)CC(c1cccs1)n1cc(C(=O)O)c(=O)cc1-2` (stereo not drawn) [Example 16, 10-methoxy-2-oxo-9-(3-pyrazol-1-ylpropoxy)-6-(2-thienyl)-6,7-dihydrobenzo[a]quinolizine-3-carboxylic Acid]: 9 nM; `COc1cc2c(cc1OCCCn1cncn1)CC(c1cccs1)n1cc(C(=O)O)c(=O)cc1-2` (stereo not drawn) [Example 29, 10-methoxy-2-oxo-6-(2-thienyl)-9-[3-(1,2,4-triazol-1-yl)propoxy]-6,7-dihydrobenzo[a]quinolizine-3-carboxylic Acid]: 64 nM.
Turning to `COc1cc2c(cc1OCc1ccccc1)CC(c1cccs1)n1cc(C(=O)O)c(=O)cc1-2` (stereo not drawn) [Example 12, 9-benzyloxy-10-methoxy-2-oxo-6-(2-thienyl)-6,7-dihydrobenzo[a]quinolizine-3-carboxylic Acid], the IC50 is 5 nM.
As to `COc1cc2c(cc1OCCCN1CCOCC1)CC(c1cccs1)n1cc(C(=O)O)c(=O)cc1-2` (stereo not drawn) [Example 28, 10-methoxy-9-(3-morpholinopropoxy)-2-oxo-6-(2-thienyl)-6,7-dihydrobenzo[a]quinolizine-3-carboxylate], the IC50 was found to be 10 nM.
Next, `COc1cc2c(cc1OCCCCCCNS(C)(=O)=O)CC(c1cccs1)n1cc(C(=O)O)c(=O)cc1-2` (stereo not drawn) [Example 24, 9-[6-(methanesulfonamido)hexoxy]-10-methoxy-2-oxo-6-(2-thienyl)-6,7-dihydrobenzo[a]quinolizine-3-carboxylic Acid]: 10 nM; `COCCCOc1cc2c(cc1OC)-c1cc(=O)c(C(=O)O)cn1C(c1ccc(O)cc1)C2` (stereo not drawn) [Example 4, 6-(4-hydroxyphenyl)-10-methoxy-9-(3-methoxypropoxy)-2-oxo-6,7-dihydrobenzo[a]quinolizine-3-carboxylic Acid]: 1160 nM; `COc1cc2c(cc1OCCCSC)CC(c1cccs1)n1cc(C(=O)O)c(=O)cc1-2` (stereo not drawn) [Example 31, 10-methoxy-9-(3-methylsulfanylpropoxy)-2-oxo-6-(2-thienyl)-6,7-dihydrobenzo[a]quinolizine-3-carboxylic Acid]: 4 nM.
For `CCCc1cc2c(cc1OC)-c1cc(=O)c(C(=O)O)cn1C(c1cccs1)C2` (stereo not drawn) [Example 35, 10-methoxy-2-oxo-9-propyl-6-(2-thienyl)-6,7-dihydrobenzo[a]quinolizine-3-carboxylic Acid] the value was 22 nM; for `COCCCOc1cc2c(cc1OC)-c1cc(=O)c(C(=O)O)cn1C(c1ccc(OCc3ccccc3)cc1)C2` (stereo not drawn) [Example 6, 6-(4-benzyloxyphenyl)-10-methoxy-9-(3-methoxypropoxy)-2-oxo-6,7-dihydrobenzo[a]quinolizine-3-carboxylic Acid], 1930 nM; for `CCc1cc2c(cc1OC)-c1cc(=O)c(C(=O)O)cn1C(c1cccs1)C2` (stereo not drawn) [Example 34, 9-ethyl-10-methoxy-2-oxo-6-(2-thienyl)-6,7-dihydrobenzo[a]quinolizine-3-carboxylic Acid], 24 nM.
With `COc1cc2c(cc1OCCCN1CCCCC1)CC(c1cccs1)n1cc(C(=O)O)c(=O)cc1-2` (stereo not drawn) [Example 18, 10-methoxy-2-oxo-9-[3-(1-piperidyl)propoxy]-6-(2-thienyl)-6,7-dihydrobenzo[a]quinolizine-3-carboxylic Acid Formate], the IC50 stood at 97 nM.
For `COc1cc2c(cc1OCCCCCCN)CC(c1cccs1)n1cc(C(=O)O)c(=O)cc1-2` (stereo not drawn) [Example 22, 9-(6-aminohexoxy)-10-methoxy-2-oxo-6-(2-thienyl)-6,7-dihydrobenzo[a]quinolizine-3-carboxylic Acid Formate] the value was 21 nM; for `COc1cc2c(cc1OCCCCCCO)CC(c1cccs1)n1cc(C(=O)O)c(=O)cc1-2` (stereo not drawn) [Example 25, 9-(6-hydroxyhexoxy)-10-methoxy-2-oxo-6-(2-thienyl)-6,7-dihydrobenzo[a]quinolizine-3-carboxylic Acid], 3 nM.
For `COc1cc2c(cc1OCC(F)(F)F)CC(c1cccs1)n1cc(C(=O)O)c(=O)cc1-2` (stereo not drawn) [Example 27, 10-methoxy-2-oxo-6-(2-thienyl)-9-(2,2,2-trifluoroethoxy)-6,7-dihydrobenzo[a]quinolizine-3-carboxylic Acid] the value was 3 nM.

In general, IC50 refers to the point on the concentration scale where inhibition reaches its midpoint.
